The text below walks through data of US10869864B2, “Combinations for the treatment of cancer” (IGNYTA, INC., priority 2015, dated 2020).

Structures are written as SMILES.

For data set [1], the system named is KM-12 TPM3-NTRK1 G595R cells. The data set can be described thus: Tumor growth in athymic nu/nu mice implanted subcutaneously with KM-12 TPM3-NTRK1 G595R cells. The data set is classed as in vivo. Conditions: for Average tumor volume / Percent tumor growth inhibition (% TGI): entrectinib 60 mg/kg, trametinib 1 mg/kg, p.o. q.d. The method, then: Athymic nu/nu mice, 6-7 weeks old, female mice were implanted subcutaneously (right flank) with 2 million KM-12 TPM3-NTRK1 G595R cells/mouse. Animals were randomized once the mean tumor volume reached ˜150 mm^3.
Trametinib in vivo oral dosing solution was made by dissolving trametinib in a solution of DMSO (Lot #: SHBG1596V, D8418-100ML, Sigma), PEG 400 (Lot #: MKBX3961V, 202398-500G, Sigma), Tween 80 (Lot #: MKB58228V, P4780-100ML, Sigma) and water. The final concentration of trametinib was 0.1 mg/mL and the amounts of each component in the resulting solution were 3.3% DMSO, 16.7% PEG 400, 15% Tween 80 and 65% water, with the water being added just prior to dosing.
Athymic nu/nu female mice between 6-7 weeks of age were ordered from Charles River. Animals were allowed to acclimate 3 days prior to the start of the study (e.g., cell implantation). Animals were housed in irradiated, individual HEPA ventilated cages (Innocage® IVC, Innovive USA) on a 12-hour light-dark cycle at 68-79° F. and 30-70% humidity. Animals were provided with irradiated chow (Teklad 2920X) and acidified drinking water (Innovive) ad libitum as per the animal care and use protocol established at Explora Biolabs (Ignyta ACUP # EB15-050). Animals were identified by uniquely numbered ear-tags.
(§1) KM12 cells were cultured, harvested, and suspended in 1:1 FBS free culture media:martigel at a concentration of 10 million cells/mL. Cells were implanted under the skin on the right flank of each mouse on day 0. The implantation volume was 200 μL/mouse. Tumors grew until the mean tumor volume reached approximately 130 mm^3. On day 8 mice were randomized into 6 treatment groups (10 mice/group) and treatment began. […] The final treatment for all groups was administered on day 17, for a total of 10 doses. The final tumor and body weight measurements were taken on the final day of dosing, day 17.
(§2) Tumors measurements and body weights were collected 2×/week over the duration of the study. Tumor growth was assessed by caliper and tumor volumes were calculated using the equation (1). Animals with tumor volumes >2,000 mm^3 were removed from study. Volume (mm^3)=[length (mm)×width (mm)×width (mm)]/2 (1)
The percentage of tumor growth inhibition (% TGI) was calculated for each treatment group at each tumor measurement. The % TGI values were calculated using equation (2) below, where TVvehicle is the tumor volume for the vehicle-treated animals at a specified time point, TVinitial is the initial tumor volume at the start of the treatment and TVtreatment is the tumor volume of the treatment group at a specified end-point time. Differences in tumor volumes were assessed by ANOVA using GraphPad Prism (version 6.07, GraphPad Software, Inc.). % TGI=[(TVvehicle−TVtreatment)/(TVvehicle−TVinitial)]×100

The nature of data set [2]: Tolerability, body weight and toxicity in the KM-12 TPM3-NTRK1 G595R mouse study. Conditions: any animals receiving trametinib 1 mg/kg p.o. q.d. The method, then:
as §1, §2

The mark [3] stands for this setting: day 8 after cell implantation (randomization, treatment began).
Setting [4] is: day 8 after cell implantation (treatment began).
The mark [5] stands for this setting: day 17 after cell implantation (10 doses).
The mark [6] stands for this setting: day 17 after cell implantation (final day, 10 doses).

Take `CN1CCN(c2ccc(C(=O)Nc3n[nH]c4ccc(Cc5cc(F)cc(F)c5)cc34)c(NC3CCOCC3)c2)CC1` [Entrectinib, N-[5-(3,5-difluorobenzyl)-1H-indazol-3-yl]-4-(4-methyl-piperazin-1-yl)-2-(tetrahydro-pyran-4-ylamino)-benzamide]: the Average tumor volume is given as 148.2 mm^3 in data set [1] (setting [3]), 403.2 mm^3 in data set [1] (day 11 after cell implantation), 934.5 mm^3 in data set [1] (day 14 after cell implantation) and 2057.8 mm^3 in data set [1] (setting [6]). In addition, the “Percent tumor growth inhibition (% TGI)” value in data set [1] (setting [4]) is given as 100.0%; in data set [1] (day 11 after cell implantation) it was −15.1%; in data set [1] (day 14 after cell implantation) it was −4.5%; in data set [1] (setting [5]) it was −11.6%.

In the case of `CC(=O)Nc1cccc(-n2c(=O)n(C3CC3)c(=O)c3c(Nc4ccc(I)cc4F)n(C)c(=O)c(C)c32)c1` [Trametinib], in data set [2], the “Toxicity (evaluated based on body weight loss)” value is given as “Toxicity was observed”. For the same molecule, the “tumor volume difference from vehicle, two-way ANOVA” value in data set [1] (by day 14, p<0.05) is on record as “significantly different from vehicle”. Moreover, the Average tumor volume is 146.7 mm^3 in data set [1] (setting [3]), 254.8 mm^3 in data set [1] (day 11 after cell implantation), 373.1 mm^3 in data set [1] (day 14 after cell implantation) and 544.9 mm^3 in data set [1] (setting [6]). Also, the “Percent tumor growth inhibition (% TGI)” value in data set [1] (setting [4]) is listed as 100.0%; in data set [1] (day 11 after cell implantation), 51.5%; in data set [1] (day 14 after cell implantation) it was 70.0%; in data set [1] (setting [5]) it was 76.7%. Further, in data set [1] (days 14 and 17), the “tumor volume difference from vehicle, one-way ANOVA” value is “Differences were found”.
